Assays:
Format in all cases: biochemical
[1] = target: PDE1C (Homo sapiens, UniProt Q14123); test: PDE1 inhibition assay (SPA), PDE1C; details: concentration required to reach 50% inhibition of the enzyme; 15 nM tritium labelled cAMP; read-out: PDE1C inhibition (nM or %): IC50
Protocol: (§1) PDE1 Inhibition Assay PDE1A, PDE1B and PDE1C assays were performed as follows: the assays were performed in 60 μL samples containing a fixed amount of the PDE1 enzym1 (sufficient to convert 20-25% of the cyclic nucleotide substrate), a buffer (50 mM HEPES pH 7.6; 10 mM MgCl2; 0.02% Tween20), 0.1 mg/ml BSA, 15 nM tritium labelled cAMP and varying amounts of inhibitors. Reactions were initiated by addition of the cyclic nucleotide substrate, and reactions were allowed to proceed for 1 h at room temperature before being terminated through mixing with 20 μL (0.2 mg) yttrium silicate SPA beads (PerkinElmer). The beads were allowed to settle for 1 h in the dark before the plates were counted in a Wallac 1450 Microbeta counter. The measured signals were converted to activity relative to an uninhibited control (100%) and IC50 values were calculated using XIFit (model 205, IDBS).

[2] = target: PDE1B (Homo sapiens, UniProt Q01064); test: PDE1 inhibition assay (SPA), PDE1B; details: for IC50: concentration required to reach 50% inhibition of the enzyme, 15 nM tritium labelled cAMP, read-out: PDE1B inhibition (nM or %): IC50; for inhibition at 10 µM: 1 h, % inhibition of the enzyme at a concentration of 10 micro molar of the compound, read-out: PDE1B inhibition (nM or %): % inhib
PDE1B, sequence (Q01064 whole entry): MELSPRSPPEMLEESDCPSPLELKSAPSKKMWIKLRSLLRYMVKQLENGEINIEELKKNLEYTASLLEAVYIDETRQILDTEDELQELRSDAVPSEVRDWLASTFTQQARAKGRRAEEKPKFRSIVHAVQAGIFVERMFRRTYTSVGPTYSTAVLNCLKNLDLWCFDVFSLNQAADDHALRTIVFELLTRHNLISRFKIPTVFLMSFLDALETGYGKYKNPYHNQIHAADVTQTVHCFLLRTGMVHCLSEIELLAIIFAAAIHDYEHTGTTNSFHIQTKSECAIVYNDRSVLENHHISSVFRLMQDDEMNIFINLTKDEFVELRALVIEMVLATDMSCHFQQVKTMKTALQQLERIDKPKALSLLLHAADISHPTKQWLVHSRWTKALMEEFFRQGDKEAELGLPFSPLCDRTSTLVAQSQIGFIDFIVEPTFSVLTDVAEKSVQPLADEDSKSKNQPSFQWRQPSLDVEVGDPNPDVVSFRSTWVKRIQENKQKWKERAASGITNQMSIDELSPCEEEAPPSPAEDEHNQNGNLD
Protocol: as §1

[3] = target: PDE1A (Homo sapiens, UniProt P54750); test: PDE1 inhibition assay (SPA), PDE1A; details: for IC50: concentration required to reach 50% inhibition of the enzyme, 15 nM tritium labelled cAMP, read-out: PDE1A inhibition (nM or %): IC50
PDE1A, sequence (P54750 whole entry): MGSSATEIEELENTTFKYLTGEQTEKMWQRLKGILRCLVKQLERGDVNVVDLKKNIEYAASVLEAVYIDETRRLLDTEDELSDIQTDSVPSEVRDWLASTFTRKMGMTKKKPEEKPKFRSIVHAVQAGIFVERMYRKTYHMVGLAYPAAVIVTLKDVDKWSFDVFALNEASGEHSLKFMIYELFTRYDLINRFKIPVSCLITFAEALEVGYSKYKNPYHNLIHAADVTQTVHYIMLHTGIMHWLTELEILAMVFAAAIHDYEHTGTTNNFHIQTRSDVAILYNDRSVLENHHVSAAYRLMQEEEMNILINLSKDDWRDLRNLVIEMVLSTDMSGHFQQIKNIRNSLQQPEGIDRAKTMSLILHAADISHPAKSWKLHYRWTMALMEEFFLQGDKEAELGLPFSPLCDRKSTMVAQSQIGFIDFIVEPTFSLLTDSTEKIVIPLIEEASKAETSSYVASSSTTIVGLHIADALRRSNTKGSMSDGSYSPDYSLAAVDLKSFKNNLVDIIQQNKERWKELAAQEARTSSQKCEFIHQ
Protocol: as §1

PDE1C, sequence (Q14123 whole entry): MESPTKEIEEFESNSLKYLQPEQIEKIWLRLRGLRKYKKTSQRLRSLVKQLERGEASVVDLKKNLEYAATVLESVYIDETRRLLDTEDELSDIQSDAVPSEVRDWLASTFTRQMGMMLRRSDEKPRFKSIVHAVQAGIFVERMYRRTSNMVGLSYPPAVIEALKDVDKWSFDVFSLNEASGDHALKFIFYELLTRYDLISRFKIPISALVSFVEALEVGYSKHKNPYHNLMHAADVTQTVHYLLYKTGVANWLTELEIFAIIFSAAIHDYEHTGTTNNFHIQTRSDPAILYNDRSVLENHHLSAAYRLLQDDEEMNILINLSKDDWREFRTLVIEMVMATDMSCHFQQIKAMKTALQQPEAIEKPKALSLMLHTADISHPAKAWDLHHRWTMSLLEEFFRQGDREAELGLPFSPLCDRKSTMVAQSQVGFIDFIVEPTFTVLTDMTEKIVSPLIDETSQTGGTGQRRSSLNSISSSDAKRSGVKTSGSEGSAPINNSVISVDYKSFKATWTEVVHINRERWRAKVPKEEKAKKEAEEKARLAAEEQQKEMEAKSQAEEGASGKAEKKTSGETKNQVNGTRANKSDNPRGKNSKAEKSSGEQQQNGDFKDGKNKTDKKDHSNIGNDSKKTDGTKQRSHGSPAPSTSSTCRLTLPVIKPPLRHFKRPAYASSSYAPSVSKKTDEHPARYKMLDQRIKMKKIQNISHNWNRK

SMILES	IC50 [1] [nM]	IC50 [2] [nM]	IC50 [3] [nM]	other results
CCCc1nnc2c(=O)n(Cc3ccc(C(F)(F)F)cc3)ccn12 [3-Propyl-7-(4-(trifluoromethyl)benzyl)-[1,2,4]triazolo[4,3-a]pyrazin-8(7H)-one]	2100	570	1200	
CCCc1nnc2c(=O)n(Cc3ccc(F)cc3)ccn12 [7-(4-Fluorobenzyl)-3-propyl-[1,2,4]triazolo[4,3-a]pyrazin-8(7H)-one]	360	1200	970	
CCCc1nnc2c(=O)n(Cc3cccc(F)c3)cc([C@H]3CCOC3)n12 (single isomer, unassigned)	260	2300	1610	
O=c1c2nnc(C3CCCOC3)n2ccn1Cc1cccc(F)c1 (single isomer, unassigned) [7-(3-Fluorobenzyl)-3-(tetrahydro-2H-pyran-3-yl)-[1,2,4]triazolo[4,3-a]pyrazin-8(7H)-one]			1800	
O=c1c2nnc(C3CCCOC3)n2ccn1Cc1cccc(F)c1 (single isomer, unassigned) [7-(3-Fluorobenzyl)-3-(tetrahydro-2H-pyran-3-yl)-[1,2,4]triaz] [7-(3-Fluorobenzyl)-3-(tetrahydro-2H-pyran-3-yl)-[1,2,4]triazolo[4,3-a]pyrazin-8(7H)-one]			1800	
CCCc1nnc2c(=O)n(CC3CCOC3)ccn12 (single isomer, unassigned) [3-Propyl-7-((tetrahydrofuran-3-yl)methyl)-[1,2,4]triazolo[4,3-a]pyrazin-8(7H)-one]		4000		inhibition at 10 µM [2]: 67%
O=c1c2nnc(CC3CCCO3)n2ccn1Cc1cccc(F)c1 (single isomer, unassigned) [7-(3-Fluorobenzyl)-3-((tetrahydrofuran-2-yl)methyl)-[1,2,4]triazolo[4,3-a]pyrazin-8(7H)-one]		3700		inhibition at 10 µM [2]: 67%; inhibition at 10 µM ([3]; 1 h, % inhibition of the enzyme at a concentration of 10 micro molar of the compound, read-out: PDE1A inhibition (nM or %): % inhib): 67%
O=c1c2nnc(CC3CCCO3)n2ccn1Cc1cccc(F)c1 (single isomer, unassigned) [7-(3-Fluorobenzyl)-3-((tetrahydrofuran-2-yl)methyl)-[1,2,4]t] [7-(3-Fluorobenzyl)-3-((tetrahydrofuran-2-yl)methyl)-[1,2,4]triazolo[4,3-a]pyrazin-8(7H)-one]				PDE1A inhibition (nM or %): % inhib ([3]; % inhibition of the enzyme at a concentration of 10 micro molar of the compound): 49%
O=c1c2nnc(C3CCCCO3)n2ccn1Cc1cccc(F)c1 (single isomer, unassigned) [7-(3-Fluorobenzyl)-3-(tetrahydro-2H-pyran-2-yl)-[1,2,4]triaz] [7-(3-Fluorobenzyl)-3-(tetrahydro-2H-pyran-2-yl)-[1,2,4]triazolo[4,3-a]pyrazin-8(7H)-one]			3200	

More lines, main results first:

IC50 [1] [nM]	IC50 [2] [nM]	IC50 [3] [nM]	SMILES	other results
4	37	17	Cc1cccc(Cc2cn3c(C4CCOCC4)nnc3c(=O)n2CC2CCCC2)c1 [7-(cyclopentylmethyl)-6-(3-methylbenzyl)-3-(tetrahydro-2H-pyran-4-yl)-[1,2,4]triazolo[4,3-a]pyrazin-8(7H)-one]	
5	18	32	O=c1c2nnc(C3CCOCC3)n2cc(Cc2ccccc2)n1Cc1cccc(F)c1 [6-benzyl-7-(3-fluorobenzyl)-3-(tetrahydro-2H-pyran-4-yl)-[1,2,4]triazolo[4,3-a]pyrazin-8(7H)-one]	
240			O=c1c2nnc(C3CCOC3)n2ccn1Cc1cccc(F)c1 (single isomer, unassigned) [7-(3-Fluorobenzyl)-3-(tetrahydrofuran-3-yl)-[1,2,4]triazolo[] [7-(3-Fluorobenzyl)-3-(tetrahydrofuran-3-yl)-[1,2,4]triazolo[4,3-a]pyrazin-8(7H)-one]	
240			O=c1c2nnc(C3CCOC3)n2ccn1Cc1cccc(F)c1 (single isomer, unassigned) [7-(3-Fluorobenzyl)-3-(tetrahydrofuran-3-yl)-[1,2,4]triazolo[4,3-a]pyrazin-8(7H)-one]	
		3200	O=c1c2nnc(C3CCCCO3)n2ccn1Cc1cccc(F)c1 (single isomer, unassigned) [7-(3-Fluorobenzyl)-3-(tetrahydro-2H-pyran-2-yl)-[1,2,4]triazolo[4,3-a]pyrazin-8(7H)-one]	
